In patent publication US6911432B2, “Drugs, foods or drinks with the use of algae-derived physiologically active substances” (priority 1997, dated 2005):

What was measured:
HL-60 cells [1] = experiment: antiproliferation assay, MTT method, absorbance at 590 nm; format: cell-based, human; conditions: for antiproliferation activity against HL-60 cells (in words): preparations and fractions, compared with control to which water was added
HL-60 cells [2] = experiment: apoptosis-inducing assay, cell morphology under an optical microscope; format: cell-based, human
Protocol: Human promyelocytic leukemia cell HL-60 (ATCC CCL-240) was incubated at 37° C. in RPMI 1640 medium (manufactured by Gibco) supplemented with 10% of fetal bovine serum (JRH Bioscience) which had been treated at 56° C. for 30 minutes, and suspended in the same medium at a concentration of 500 cells/90 μl. Each 90 μl portion of the suspension was distributed into each well of a 96 well plate (manufactured by Falcon). To the suspension in each well was added 10 μl of the above-mentioned acid decomposition solution, a 10-fold dilution of the solution or water, and incubated with 5% CO2 at 37° C. After 24 hour and 48 hour from the initiation of the incubation, the cell morphology was observed under an optical microscope. Then, according to the MTT method described in “Apoptosis Jikken Protocol” (Syuzyun-sha, Tanuma, Seiichi ed., pp. 156 (1994)), 5 mg/ml of 3-(4,5-dimethylthiazole-2-yl)-2,5-diphenyltetrazolium bromide (manufactured by Sigma) and 10 μl of phosphate buffered saline solution were added to the culture and the incubation was continued for additional 4 hours. Then, 100 μl of 2-propanol containing 0.04 N hydrochloric acid was added to the culture, and the mixture was thoroughly stirred. An absorbance at 590 nm was measured and the number of viable cells was calculated from the absorbance measured for each of the wells, which was compared each other.
Each elution peak was fractionated, collected, evaporated to dryness under reduced pressure and then dissolved in 300 μl of water. Each fraction was sterilized by filtration and its 10 μl portion was placed in a well of a 96 well microtiter plate. Then, 90 μl of RPMI 1640 medium (manufactured by Nissui) containing 10% fetal bovine serum (manufactured by Gibco) and 5,000 HL-60 cells (ATCC CCL-240) was added thereto, followed by incubation at 37° C. for 48 hours with 5% CO2. The cell morphology was observed under an optical microscope. Then, 5 mg/ml 3-(4,5-dimethylthiazole-2-yl)-2,5-diphenyltetrazolium bromide and 10 μl of phosphate buffered saline solution were added thereto and the incubation was continued for additional 4 hours. To the culture was added 100 μl of 2-propanol containing 0.04 N hydrochloric acid and the resultant mixture was thoroughly stirred. The absorbance at 590 nm was measured to determine a cell proliferation rate.

HL-60 cells [3] = experiment: viable cell count with Trypan Blue under a microscope; format: cell-based, human; conditions: final concentration 250 μM or 125 μM
Protocol: Agarobiose, agarotetraose, agarohexaose and agarooctaose (hereinafter, sometimes, these oligosuccharaides are referred to as agarooligosaccharides) obtained in Example 5 were dissolved in water at a concentration of 2.5 mM or 1.25 mM separately, and were sterilized by filtration. HL-60 cells were suspended in RPMI 1640 medium containing 10% fetal bovine serum at a concentration of 2.5×10^5 cells/4.5 ml and to this suspension was added 0.5 ml of each of the oligosaccharide solutions. The resultant mixture were incubated with 5% CO2 at 37° C. for 24 hours or 48 hours. A part of the cell culture was taken up, followed by addition of Trypan Blue thereto and observing under a microscope to count the number of viable cells.
That is, FIG. 14 illustrates the relation between the incubation time and the number of viable cells when HL-60 cells were cultured with addition of one of the oligosaccharides at the final concentration of 250 μM. FIG. 15 illustrates the relation between the incubation time and the number of viable cells when HL-60 cells were cultured with addition of one of the oligosaccharides at the final concentration of 125 μM. In FIGS. 14 and 15, the horizontal axes represent the incubation time (hrs.) and the vertical axes represent the number of viable cells (× 10^5/5 ml). The closed circle (●) represents the addition of water (control), the open diamond (⋄) represents the addition of agarobiose, the open circle (◯) represents the addition of agarotetraose, the open triangle (Δ) represents the addition of agarohexaose and the open square (□) represents the addition of agarooctaose.

[4] = tested on: lipid peroxide radical production; experiment: inhibition of lipid peroxide radical production (tert-butyl hydroperoxide, bacterial growth readout); format: cell-based, Staphylococcus aureus 3A; design: key to growth of the bacterium (activity of inhibiting lipid peroxide radical production): + represents the sample in which the growth of the bacterium was observed; −represents the sample in which the growth of the bacterium was not observed
Protocol: Staphylococcus aureus 3A (National Collection Of Type Culture, NCTC 8319) was inoculated into 5 ml of brain heart infusion medium (manufactured by Difco, 0037-17-8) and cultured at 37° C. overnight. The bacterial cells were collected by centrifugation, washed with phosphate buffered saline 3 times and then suspended in phosphate buffered saline at a concentration of 1×10^7 colony forming units/ml. A mixture of 100 μl of the cell suspension, 100 μl of an aqueous sample solution, 100 μl of aqueous 1 mg/ml methemoglobin (manufactured by Sigma M9250) solution, 600 μl of phosphated buffered saline and 100 μl of aqueous 50 mM tert-butyl hydroperoxide (manufactured by Katayama Kagaku, 03-4990) solution were reacted at 37° C. for 30 minutes. To the reaction mixture was added 1 ml of 2×NMP medium [prepared by dissolving 8 g of nutrient broth (manufactured by Difco, 0003-01-6), 5 g of trypton (manufactured by Difco, 0123-17-3), 5 g of NaCl, 10 g of mannitol (manufactured by Nacalai Tesque, 213-03) and 0.035 g of phenol red (manufactured by Nacalai Tesque, 268-07) in distilled water to make the volume up to 500 ml. The pH was adjusted to 7.5 with NaOH and then the mixture was sterilized by filtration] to stop the reaction. The resultant mixture was diluted every 3-folds with NMP medium (prepared by diluting 2×NMP medium 2-folds with sterilized water) to prepare 12 serial dilutions and 160 μl of each dilution was placed in each well of a 96-well microtiter plate. The plate was incubated at 37° C. overnight.
In Table 14, + represents the sample in which the growth of the bacterium was observed, and −represents the sample in which the growth of the bacterium was not observed. The concentration shown in the uppermost line of the table is that of the sample in the reaction mixture in which the sample was reacted with tert-butyl hydroperoxide and the bacterial cells at 37° C. for 30 minutes.

RAW 264.7 cells = experiment: NO production induced by LPS, NO2- concentration in medium; format: cell-based, mouse; conditions: for inhibition of NO production (in words): RAW264.7, aqueous 100 mM solution used as sample
Protocol: (1) RAW 264.7 cells (ATCC TIB 71) were suspended in phenol red-free Dulbecco's modified Eagle's medium containing 10% fetal bovine serum (manufactured by Gibco) and 2 mM L-glutamine (manufactured by Life Technologies Oriental, 25030-149) at a concentration of 3×10^5 cells/ml, and 500 μl portions thereof were seeded to respective wells of a 48-well microtiter plate and incubated at 37° C. for 12 hours in the presence of 5% CO2. To each well were added 10 μl of 25 μg/ml lipopolysaccharide (LPS, manufactured by Sigma, L-2012) and 10 μl of aqueous 5000, 1500, 500, 150 or 50 μM agarobiose or neoagarobiose (manufactured by Sigma, G4410) solution, and the plate was incubated for additional 12 hours. Then, concentration of NO2^− produced by oxidation of NO in the medium was measured. As control groups, a group to which LPS was not added and a group to which agarobiose or neoagarobiose was not added were provided.
After incubating as described above, 100 μl of 4% Greece reagent (manufactured by Sigma, G4410) was added to 100 μl of the medium, and the mixture was allowed to stand for 15 minutes at room temperature. Then, the absorbance at 490 nm was measured. NO2^− concentration in the medium was calculated with reference to a calibration curve prepared by using NaNO2 at given concentrations dissolved in the same medium as that described above. All the measurements were carried out in triplicate.
(2) A suspension of 5 g of commercially available agar (Ina agar type S-7, manufactured by Ina Shokuhin Kogyo) in 45 ml of 0.1 N HCl was treated at 95° C. for 13 minutes. After cooling to room temperature, the suspension was neutralized with NaOH and filtered through 0.22 μm MILLEX-GP filter (manufactured by Milipore, SLGPR25LS). […] Namely, 10 μl of 25 μg/ml LPS and 10 μl of a 20-fold dilution of the sample mentioned above were added to wells of a 48 well microtiter plate containing RAW264.7 cells which had been incubated in the wells. The measurement was carried out with the culture medium. As control groups, a group to which LPS was not added, a group to which a sample was not added and a group to which 2.5 mM citric acid was added were provided. All the measurement were carried out in duplicate.

O=C[C@H](O)[C@H]1OC[C@@H](O)[C@@H]1O[C@@H]1O[C@H](CO)[C@H](OS(=O)(=O)O)[C@H](O)[C@H]1O [κ-carabiose, β-D-galactopyranosyl-4-sulfate-(1→4)-3,6-anhydro-D-galactose]
cell proliferation suppressed as compared with the control group (HL-60 cells [1]; HL-60, κ-carabiose at 156 μM): about 70% | antiproliferation activity against HL-60 cells (in words) (HL-60 cells [1]): cell proliferation was inhibited | apoptosis corpuscles under an optical microscope (HL-60 cells [2]; 156 μM): apoptosis corpuscles were observed | apoptosis-inducing activity (apoptosis corpuscles, in words) (HL-60 cells [2]; preparations and fractions): apoptosis corpuscles were observed

O=C[C@@H](O)[C@@H]1OC[C@H](O)[C@H]1O [3,6-anhydro-L-galactose]
absorbance at 590 nm relative to that of the control group to which water was added (HL-60 cells [1]; HL-60, final concentration of 1 mM): less than one-half | apoptosis corpuscles (HL-60 cells [2]; final concentration of 1 mM): apoptosis corpuscles were observed

agarooctaose
apoptosis corpuscles (HL-60 cells [3]): apoptosis corpuscles were observed | number of viable cells as compared with the group to which water was added (HL-60 cells [3]; 24 hours or 48 hours): decreased

O=C[C@H](O)[C@@H](O)[C@@H](O)[C@H](O)CO [Galactose, galactose, reference compound]
growth of the bacterium (activity of inhibiting lipid peroxide radical production) ([4]; 0.1 mM sample in the reaction mixture): − | growth of the bacterium (activity of inhibiting lipid peroxide radical production) ([4]; 1 mM sample in the reaction mixture): − | inhibition of NO production (in words) (RAW 264.7 cells): did not

CO[C@H](C=O)[C@@H]1OC[C@H](O)[C@H]1O[C@@H]1O[C@H](CO)[C@H](O)[C@H](O)[C@H]1O [β-D-galactopyranosyl-(1→4)-3,6-anhydro-2-O-methyl-L-galactose]
antiproliferation activity against HL-60 cells (in words) (HL-60 cells [1]): strong antiproliferation activity | antiproliferation activity against HL-60 cells (in words) (HL-60 cells [1]; listed as group 3): an antiproliferation activity was observed

O=C[C@H](O)[C@H]1OC[C@@H](O)[C@@H]1O [3,6-anhydro-D-galactose]
inhibition of NO production (in words) (RAW 264.7 cells): inhibited NO production

OC[C@H]1OC(O)[C@H](O)[C@@H](O[C@@H]2O[C@H]3CO[C@@H]([C@@H]2O)[C@@H]3O)[C@H]1O (stereo partly drawn) [neoagarobiose, reference compound]
inhibition of NO production induced by LPS (in words) (RAW 264.7 cells; RAW 264.7, 10 μl of 5000 to 50 μM solution per 500 μl well, 12 hours): did not
